Experimental data published in paper PMC4684082 (Journal of the American Chemical Society, 2015).
Substitutions are numbered along the chain they refer to.

Key:
[1] = biological target: T1, wt hhIYD (iodotyrosine deiodinase from Haliscomenobacter hydrossis) (Haliscomenobacter hydrossis, UniProt F4KU78); test: UV-vis spectrum of enzyme-bound FMN, dithionite reduction; type: binding; details: pH 6 MES, 500 mM NaCl, 10% glycerol; anaerobic
T1 sequence (F4KU78 1-222): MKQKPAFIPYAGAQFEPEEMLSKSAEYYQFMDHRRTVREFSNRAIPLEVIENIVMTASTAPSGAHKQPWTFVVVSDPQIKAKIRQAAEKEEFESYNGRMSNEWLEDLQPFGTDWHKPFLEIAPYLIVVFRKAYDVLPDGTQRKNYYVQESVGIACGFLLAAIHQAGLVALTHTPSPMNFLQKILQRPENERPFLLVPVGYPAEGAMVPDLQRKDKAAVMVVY

[2] = biological target: T2, wt hhIYD (iodotyrosine deiodinase from Haliscomenobacter hydrossis) (Haliscomenobacter hydrossis, UniProt F4KU78, T173A); test: quenching of active-site FMNox fluorescence; type: binding
T2 sequence (F4KU78 1-222 T173A): T1 sequence (F4KU78 1-222) with T173A

[3] = biological target: T2, wt hhIYD (iodotyrosine deiodinase from Haliscomenobacter hydrossis); test: steady-state reductive deiodination; type: biochemical; details: read-out: I2-Tyr / KM; dithionite as reductant
[4] = biological target: T1, wt hhIYD (iodotyrosine deiodinase from Haliscomenobacter hydrossis); test: quenching of active-site FMNox fluorescence; type: binding

Structure (SMILES) | UV-vis spectrum of enzyme-bound FMN, dithionite reduction [1] | Kd [2] [µM] | Km [3] [µM] | Kd [4] [µM]
Cc1cc2nc3c(=O)[nH]c(=O)nc-3n(C[C@H](O)[C@H](O)[C@H](O)COP(=O)(O)O)c2cc1C [FMN] | Stoichiometric addition of dithionite to wt hhIYD under anaerobic conditions reduced its FMNox to FMNhq |  |  | 
N[C@@H](Cc1cc(I)c(O)c(I)c1)C(=O)O [I2-Tyr] |  | 2.6 ± 0.2 | 35 ± 8 | 2.9 ± 0.1
